Source: patent US20240398781A1, “SPIROCYCLIC CYCLIC MODULATORS OF CHOLESTEROL BIOSYNTHESIS AND THEIR USE FOR PROMOTING REMYELINATION” (GENENTECH, INC., priority 2021, published 2024)
pEC50, pKi: −log10 of the molar value. Read-outs that look alike come from different tables or passages of the source.

Tests used:
human EBP = human EBP (Homo sapiens (Human), UniProt Q15125); assay: Competition binding assay (SPA, [3H]-Ifenprodil) to determine compound affinity to EBP; settings: read-out: hEBP SPA Ki
Experimental: Membrane preparation: To examine compound binding affinity to EBP, human EBP was overexpressed in human embryonic kidney 293 cells. Cell pellet was lysed in 10 times weight binding buffer (50 mM Tris, 5 mM MgCl2, 0.1 mM EDTA, lx protease inhibitor cocktail, pH 7.5) on ice by using a dounce homogenizer. The solution was centrifuged at 25,000 g for 50 min at 4° C. The membrane pellet was re-suspended in binding buffer and run through a 25 5/8 gauge needle. After checking the concentration by Bradford assay, the whole cell membrane solution was adjusted to 20 mg/mL and stored at −80° C.
This binding solution was centrifuged at 400 g for 5 minutes to collect the bead/membrane mixture. After re-suspending the pellet in binding buffer at the same calculated volume with 0.01% BSA (Sigma A1933), the bead/membrane mixture was added in 384-well low-binding surface plate (PerkinElmer Cat #6057480) at 25 μl/well. Radioligand at different concentrations with and without the non-radio-labeled same ligand 5 uM (for nonspecific and total signal, respectively) was added to bring final volume to 50 µl/well with DMSO concentration at 0.1%. At equilibrium (3 hours after ligand addition), radiometric signal CPM was counted by using a Microbeta2 microplate counter (Perkinelmer).
Competition binding assay to determine compound affinity: The same conditions of the radioligand Kd study were used for compound single dose percentage inhibition and equilibrium dissociation constant Ki examinations, except 50 nL compound DMSO stock was pre-added in 384-well low-binding surface plate (PerkinElmer Cat #6057480) by Echo 550 (Labcyte) to reach the final concentration for single dose test at 1 uM, and dose response test from 0.06 nM to 5 uM (8 dose, 5 times dilution). A pre-incubated bead/membrane mixture was added in compound plate at 0.3 mg beads and […] membrane per well. […] At equilibrium (3 hours after ligand addition), radiometric signal was counted as described above. The percentage inhibition of compound at each testing concentration was calculated by normalizing each condition's CPM readout to full block (5 uM non-radiolabeled ligand) and non-block (DMSO) control conditions. Compound binding inhibition IC50 was determined by nonlinear regression fitting of percentage inhibition plot against compound concentration. Compound Ki was calculated from the equation Ki=IC50/(1+[L]/Kd), which [L] was radioligand concentration used in assay. All tests had N bigger or equal to 2.

[1] = system: EBP (zymostenol accumulation in EpiSC-derived OPCs); assay: GC/MS-based sterol profiling, zymostenol accumulation in OPCs; format: cell-based, mouse; settings: read-out: Zymostenol GCMS EC50
In short: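 EpiSC-derived OPCs (100,000/well) were treated 24 h in N2B27 without growth factors. Sterols were TMS-derivatized and analysed by GC/MS full-scan EI, quantified against cholesterol-d7. Zymostenol was normalized to the level after 24 h with 100 nM positive control reference.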

[2] = [3H]-Ifenprodil 10 nM, HEK293 membrane overexpressing human EBP, Ki=IC50/(1+[L]/Kd)
[3] = Mus musculus, 24 h, EpiSC-derived OPCs, 24 hr treatment, 8 doses from 0.15 nM to 333 nM

human EBP, sequence (Q15125 whole entry): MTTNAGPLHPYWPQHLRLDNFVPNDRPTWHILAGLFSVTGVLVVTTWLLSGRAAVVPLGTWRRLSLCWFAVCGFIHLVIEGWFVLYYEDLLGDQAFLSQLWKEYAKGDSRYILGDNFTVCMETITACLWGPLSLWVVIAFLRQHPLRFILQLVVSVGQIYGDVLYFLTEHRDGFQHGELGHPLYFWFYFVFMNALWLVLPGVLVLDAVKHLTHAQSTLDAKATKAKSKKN

Compound	pKi (human EBP; [2])	pEC50 [1, 3]	pEC50 ([1]; EpiSC-derived OPCs, 24 hr treatment, 8 doses from 0.15 nM to 333 nM)	pEC50 ([1]; Mus musculus, 24 h)	pKi (human EBP)
CC(C)n1nc(C(F)(F)F)cc1[C@H]1CC[C@H](N2CCC3(C2)CS(=O)(=O)C3)C1 (single isomer, unassigned) [10A*]	7.47	8.55			
Cn1nc(C(F)(F)F)cc1[C@H]1CC[C@@H](N2CC[C@@]3(CCS(=O)(=O)C3)C2)CC1 (single isomer, unassigned) [38B*]	7.62	7.22			
Cn1nc(C(F)(F)F)cc1[C@H]1CC[C@H](N2CCC[C@]3(CCS(=O)(=O)C3)C2)CC1 (single isomer, unassigned) [26B*]	7.68	7.42			
O=S1(=O)CC2(CCN([C@H]3CO[C@H](c4ccc(C(F)(F)F)cc4)C3)C2)C1 (stereo in doubt) [19D*, 6-((3R,5S)-5-(4-(trifluoromethyl)phenyl)tetrahydrofuran-3-yl)-2-thia-6-azaspiro[3.4]octane 2,2-dioxide]	7.49	6.96			
Cn1nc(C(F)(F)F)cc1[C@H]1CC[C@H](N2CC[C@@]3(CCS(=O)(=O)C3)C2)CC1 (single isomer, unassigned) [27A*]	7.41	7.59			
CC(C)n1nc(-c2cncc(C(F)(F)F)c2)cc1[C@H]1CC[C@H](N2CCC3(C2)CS(=O)(=O)C3)C1 (single isomer, unassigned) [13D*]	7.15	8.92			
O=S1(=O)CC2(CCN([C@H]3CCN(c4ccc(C(F)(F)F)nc4)C3)C2)C1 (single isomer, unassigned) [9A*]	7.47	8.00			
CC(C)n1nc(C(F)(F)F)cc1[C@H]1CC[C@@H](N2CCC3(C2)CS(=O)(=O)C3)C1 (single isomer, unassigned) [10B*]	7.72	8.54			
O=S1(=O)CC2(CCN([C@H]3CCCN(c4ccc(C(F)(F)F)cc4)C3)C2)C1 (single isomer, unassigned) [22B*]	7.15	7.46			
O=S1(=O)CC2(CCN([C@H]3CC[C@@H](c4ccc(C(F)(F)F)cc4)CC3)C2)C1 [Compound 3B, 6-((1s,4s)-4-(4-(trifluoromethyl)phenyl)cyclohexyl)-2-thia-6-azaspiro[3.4]octane 2,2-dioxide]	7.21	7.80			
CC(C)n1nc(C2CC2)nc1[C@@H]1CC[C@@H](N2CCC3(C2)CS(=O)(=O)C3)C1 (single isomer, unassigned) [18C*]	7.09	7.27			
Cn1nc(C(F)(F)F)cc1[C@H]1CC[C@H](N2CC[C@]3(CCS(=O)(=O)C3)C2)CC1 (single isomer, unassigned) [38C*]	7.54		7.70		
O=S1(=O)CC2(CCN([C@H]3CC[C@@H](c4ccc(C(F)(F)F)nc4)CC3)C2)C1 [Compound 14B, 6-((1s,4s)-4-(6-(Trifluoromethyl)pyridin-3-yl)cyclohexyl)-2-thia-6-azaspiro[3.4]octane 2,2-dioxide]	7.52	7.37			
Cn1nc(C(F)(F)F)cc1[C@H]1CC[C@@H](N2CCC3(C2)CS(=O)(=O)C3)CC1 [Compound 2A, 6-((1s,4s)-4-(1-methyl-3-(trifluoromethyl)-1H-pyrazol-5-yl)cyclohexyl)-2-thia-6-azaspiro[3.4]octane 2,2-dioxide]	7.70	7.25			
CC(C)n1nc(C2CC2)nc1[C@@H]1CC[C@H](N2CCC3(C2)CS(=O)(=O)C3)C1 (single isomer, unassigned) [18A*]	6.51			7.14	
CC(C)n1nc(-c2cncc(C(F)(F)F)c2)cc1[C@@H]1CC[C@@H](N2CCC3(C2)CS(=O)(=O)C3)C1 (single isomer, unassigned) [13C*]	7.68	8.39			

Compound	pKi (human EBP; [2])	pEC50 [1, 3]	pEC50 ([1]; EpiSC-derived OPCs, 24 hr treatment, 8 doses from 0.15 nM to 333 nM)	pEC50 ([1]; Mus musculus, 24 h)	pKi (human EBP)
O=S1(=O)CC2(CCN(C3CCN(c4ccc(C(F)(F)F)cc4)CC3)C2)C1 [Compound 4, 6-(1-(4-(trifluoromethyl)phenyl)piperidin-4-yl)-2-thia-6-azaspiro[3.4]octane 2,2-dioxide]	7.59	8.60			
O=S1(=O)CC2(CCN(C3CCN(c4ncc(C(F)(F)F)cc4Cl)CC3)C2)C1 [Compound 30, 6-(1-(3-chloro-5-(trifluoromethyl)pyridin-2-yl)piperidin-4-yl)-2-thia-6-azaspiro[3.4]octane 2,2-dioxide]	7.41	8.30			
O=S1(=O)CC2(CCN([C@@H]3CO[C@H](c4ccc(C(F)(F)F)cc4)C3)C2)C1 (stereo in doubt) [19C*, 6-((3S,5S)-5-(4-(Trifluoromethyl)phenyl)tetrahydrofuran-3-yl)-2-thia-6-azaspiro[3.4]octane 2,2-dioxide]	7.47	6.96			
O=S1(=O)CC2(CCN([C@@H]3CC[C@@H](c4ccc(C(F)(F)F)cc4)C3)C2)C1 [Compound 1B, 6-((1R,3R)-3-(4-(trifluoromethyl)phenyl)cyclopentyl)-2-thia-6-azaspiro[3.4]octane 2,2-dioxide]	7.00	8.59			
CCn1nc(C(F)(F)F)cc1[C@H]1CC[C@H](N2CCC3(C2)CS(=O)(=O)C3)CC1 [Compound 15, 6-((1r,4r)-4-(1-Ethyl-3-(trifluoromethyl)-1H-pyrazol-5-yl)cyclohexyl)-2-thia-6-azaspiro[3.4]octane 2,2-dioxide]	7.60	8.40			
CC(C)n1cc(C(F)(F)F)nc1[C@H]1CC[C@@H](N2CCC3(C2)CS(=O)(=O)C3)C1 (single isomer, unassigned) [20C*]	6.57	6.51			
Cn1nc(C(F)(F)F)cc1[C@H]1CC[C@H](N2CCC[C@@]3(CCS(=O)(=O)C3)C2)CC1 (single isomer, unassigned) [26A*]	7.48	8.40			
O=S1(=O)CC2(CCN(C3CCN(c4ccc(C(F)(F)F)cn4)CC3)C2)C1 [Compound 6, 6-(1-(5-(trifluoromethyl)pyridin-2-yl)piperidin-4-yl)-2-thia-6-azaspiro[3.4]octane 2,2-dioxide]	7.43	7.85			
Cc1cc(C(F)(F)F)cnc1[C@H]1CC[C@H](N2CCC3(C2)CS(=O)(=O)C3)CC1 [Compound 47B, 6-((1r,4r)-4-(3-methyl-5-(trifluoromethyl)pyridin-2-yl)cyclohexyl)-2-thia-6-azaspiro[3.4]octane 2,2-dioxide]	7.80	8.39			
O=S1(=O)CC2(CCN([C@@H]3CC[C@H](c4ccc(C(F)(F)F)nc4)C3)C2)C1 (single isomer, unassigned) [11C*]	7.46	8.39			
CC(C)n1nc(-c2cncc(C(F)(F)F)c2)cc1[C@H]1CC[C@@H](N2CCC3(C2)CS(=O)(=O)C3)C1 (single isomer, unassigned) [13A*]	7.82	9.04			
Cn1nc(C(F)(F)F)cc1[C@H]1CC[C@@H](N2CCC3(CC2)CS(=O)(=O)C3)CC1 [Compound 25A, 7-((1s,4s)-4-(1-Methyl-3-(trifluoromethyl)-1H-pyrazol-5-yl)cyclohexyl)-2-thia-7-azaspiro[3.5]nonane 2,2-dioxide]	6.96	7.37			
Cn1nc(C(F)(F)F)cc1[C@H]1CC[C@H](N2CC[C@]3(CCS(=O)(=O)C3)C2)CC1 (single isomer, unassigned) [27B*]	7.34	7.66			
O=S1(=O)CC2(CCN(C3CC[C@H](c4ccc(C(F)(F)F)nc4)C3)C2)C1 (single isomer, unassigned) [11D*]		7.36			7.40
CC(C)n1nc(-c2cncc(OC(F)F)c2)cc1[C@H]1CC[C@@H](N2CCC3(C2)CS(=O)(=O)C3)CC1 [Compound 33B, (Cis)-6-(4-(3-(5-(Difluoromethoxy)pyridin-3-yl)-1-isopropyl-1H-pyrazol-5-yl)cyclohexyl)-2-thia-6-azaspiro[3.4]octane 2,2-dioxide]	7.48	8.01			
CC(C)n1cc(C(F)(F)F)nc1[C@@H]1CC[C@@H](N2CCC3(C2)CS(=O)(=O)C3)C1 (single isomer, unassigned) [20B*]	7.26			7.72	
